Paper PMC6317893 (Journal of pharmaceutical sciences, 2018)
Like-named read-outs stand apart in the source and are kept apart here.

Assays:
mouse Pgp (Abcb1a, MDR3) [1] = target: T1, mouse Pgp (Abcb1a, MDR3) (Mus musculus, UniProt P21447); conditions: for KSV of acrylamide quenching of Pgp (slope of Stern-Volmer plot): 1 μM Pgp
mouse Pgp (Abcb1a, MDR3) [2] = target: T1, mouse Pgp (Abcb1a, MDR3); assay: in vitro; conditions: pH 7.4
Pgp [3] = conditions: cited from earlier work
mouse Pgp (Abcb1a, MDR3) [4] = target: T1, mouse Pgp (Abcb1a, MDR3); assay: biochemical
mouse Pgp (Abcb1a, MDR3) [5] = target: T1, mouse Pgp (Abcb1a, MDR3)
mouse Pgp (Abcb1a, MDR3) [6] = target: T1, mouse Pgp (Abcb1a, MDR3); remark: listed apart in the source
mouse Pgp (Abcb1a, MDR3) [7] = target: T1, mouse Pgp (Abcb1a, MDR3); remark: listed apart in the source
Pgp [8] = conditions: Caco-2 cells, cited from earlier work
human and mouse Pgp = conditions: study of CNS drugs ref 96; cited from earlier work
Pgp [9] = conditions: rats ref 32; cited from earlier work
Pgp [10] = conditions: humans ref 32; cited from earlier work
mouse Pgp (Abcb1a, MDR3) [11] = target: T1, mouse Pgp (Abcb1a, MDR3); assay: biochemical; remark: listed apart in the source

T1 sequence (P21447 whole entry): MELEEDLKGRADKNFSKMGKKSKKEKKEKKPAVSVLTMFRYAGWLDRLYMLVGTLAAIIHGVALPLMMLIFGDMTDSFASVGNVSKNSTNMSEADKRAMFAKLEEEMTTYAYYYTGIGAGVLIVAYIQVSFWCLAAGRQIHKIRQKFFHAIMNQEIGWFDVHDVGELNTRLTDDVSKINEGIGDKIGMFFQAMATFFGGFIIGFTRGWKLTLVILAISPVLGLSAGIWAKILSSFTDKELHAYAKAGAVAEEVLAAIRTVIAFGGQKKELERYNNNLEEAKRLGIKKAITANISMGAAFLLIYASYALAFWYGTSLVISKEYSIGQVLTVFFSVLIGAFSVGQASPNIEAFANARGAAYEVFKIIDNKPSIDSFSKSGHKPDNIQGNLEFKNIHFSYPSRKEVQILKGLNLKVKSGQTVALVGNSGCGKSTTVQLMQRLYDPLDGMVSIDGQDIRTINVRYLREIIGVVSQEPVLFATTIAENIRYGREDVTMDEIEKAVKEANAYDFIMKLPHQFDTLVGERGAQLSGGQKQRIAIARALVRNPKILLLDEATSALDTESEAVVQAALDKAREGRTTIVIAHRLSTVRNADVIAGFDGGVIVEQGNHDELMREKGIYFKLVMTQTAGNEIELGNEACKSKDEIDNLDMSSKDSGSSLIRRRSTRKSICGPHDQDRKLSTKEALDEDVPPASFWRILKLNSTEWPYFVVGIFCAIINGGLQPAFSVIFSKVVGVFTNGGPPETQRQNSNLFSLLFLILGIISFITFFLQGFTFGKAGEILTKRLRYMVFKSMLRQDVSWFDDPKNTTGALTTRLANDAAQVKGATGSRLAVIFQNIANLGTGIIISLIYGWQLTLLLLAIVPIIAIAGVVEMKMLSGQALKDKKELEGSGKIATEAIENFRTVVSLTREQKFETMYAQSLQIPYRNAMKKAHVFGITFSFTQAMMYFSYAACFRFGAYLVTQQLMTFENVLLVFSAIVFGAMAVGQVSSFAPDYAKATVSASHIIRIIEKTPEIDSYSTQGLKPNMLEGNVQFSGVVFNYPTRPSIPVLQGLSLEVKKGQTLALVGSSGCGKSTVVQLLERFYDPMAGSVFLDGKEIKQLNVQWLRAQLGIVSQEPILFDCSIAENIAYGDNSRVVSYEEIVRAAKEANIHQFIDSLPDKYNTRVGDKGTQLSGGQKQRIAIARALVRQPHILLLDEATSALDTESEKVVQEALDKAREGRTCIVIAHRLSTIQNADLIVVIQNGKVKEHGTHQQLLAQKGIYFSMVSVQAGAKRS

## CN(C)C(=O)C(CCN1CCC(O)(c2ccc(Cl)cc2)CC1)(c1ccccc1)c1ccccc1 [loperamide]
Mouse Pgp (Abcb1a, MDR3) [1]; 500 μM versus 7.8 μM drug
  Increase of acrylamide-quenching KSV: about 1.4 M^−1
Mouse Pgp (Abcb1a, MDR3) [1]; in the presence of 7.8 μM drug
  KSV of acrylamide quenching of Pgp (slope of Stern-Volmer plot): 0.851 ± 0.002 M⁻¹
Mouse Pgp (Abcb1a, MDR3) [1]; in the presence of saturating 500 μM drug
  KSV of acrylamide quenching of Pgp (slope of Stern-Volmer plot): 2.25 ± 0.17 M⁻¹
Mouse Pgp (Abcb1a, MDR3) [2]
  Km: 1.6 ± 0.4 µM
Pgp [3]
  Level in brain, Pgp-knockout mice versus wild-type: > 10 fold
Mouse Pgp (Abcb1a, MDR3) [4]
  Ki: 108 ± 27 µM
Mouse Pgp (Abcb1a, MDR3) [5]; data not shown
  Quenching of intrinsic Pgp fluorescence by the drug: did not quench
Mouse Pgp (Abcb1a, MDR3) [6]; 1 mM drug, 1 μM Pgp in liposomes
  Average STDD amplification factor: ~ 30
Mouse Pgp (Abcb1a, MDR3) [6]; aromatic protons labeled 9–13, 1 mM drug, 1 μM Pgp
  STDD amplification factor of aromatic protons: ~ 30
Mouse Pgp (Abcb1a, MDR3) [7]
  Shape of drug-induced ATPase activation kinetics: biphasic
Mouse Pgp (Abcb1a, MDR3) [7]; at 7.8 μM drug
  ATPase activity, apparent maximum: around 800 nmol min^−1 mg^−1
Mouse Pgp (Abcb1a, MDR3) [7]; at saturating (500 μM) drug
  ATPase activity at saturating drug: ~ 400 nmol min^−1 mg^−1
Pgp [8]; 100 μM ref 89
  Transport at 100 μM: inhibited
Pgp [8]; in vitro ref 89
  Concentration at which transport was highest: 5 µM
Human and mouse Pgp
  Difference of efflux ratios between human and mouse Pgp: less than 2 fold
Pgp [9]
  Levels of loperamide in the presence of cyclosporine A (CsA): elevated levels
Pgp [10]
  Levels of loperamide in the presence of cyclosporine A (CsA): elevated levels

## C[C@H]1O[C@@H](O[C@H]2[C@@H](O)C[C@H](O[C@H]3[C@@H](O)C[C@H](O[C@H]4CC[C@@]5(C)[C@H](CC[C@@H]6[C@@H]5C[C@@H](O)[C@]5(C)[C@@H](C7=CC(=O)OC7)CC[C@]65O)C4)O[C@@H]3C)O[C@@H]2C)C[C@H](O)[C@@H]1O [digoxin]
Mouse Pgp (Abcb1a, MDR3) [5]; in the presence of 500 μM loperamide, biphasic, fit to Eq. 5, dynamic quenching
  KSV,L (Stern-Volmer constant, low concentration phase): 4.59 ± 2.10 µM⁻¹
Mouse Pgp (Abcb1a, MDR3) [5]; in the presence of 500 μM loperamide, biphasic, fit to Eq. 5, static quenching
  KSV,H (Stern-Volmer constant, high concentration phase): 0.0241 ± 0.0108 µM⁻¹
Mouse Pgp (Abcb1a, MDR3) [11]
  Kd: 32 ± 13.4 µM

## CCC(=O)C(CC(C)N(C)C)(c1ccccc1)c1ccccc1 (stereo not shown) [methadone]
Mouse Pgp (Abcb1a, MDR3) [5]
  Increase of KD at low loperamide concentration: ~ 5 fold
  KSV (Stern-Volmer constant) of drug-induced Pgp fluorescence quenching: 0.0137 ± 0.0022 µM⁻¹
Mouse Pgp (Abcb1a, MDR3) [6]
  Average STDD amplification factor: ~ 10
Mouse Pgp (Abcb1a, MDR3) [7]
  ATPase activity at saturating drug: around 800 nmol min^−1 mg^−1
Mouse Pgp (Abcb1a, MDR3) [11]
  Kd: 72.7 ± 11.7 µM
